Test results published in PMC3706402, “Identification and Expression of the CCAP Receptor in the Chagas’ Disease Vector, Rhodnius prolixus, and Its Involvement in Cardiac Control” (PLoS ONE, 2013).
“Also recorded” adds a separate entry of the source. Bridge positions count the residues as written; N and C are the ends. Ends that are not written are not given here.

Columns and labels:
[1] = system: RhoprCCAPR; assay: Functional receptor expression (aequorin bioluminescence, calcium mobilization) assay in CHO-WTA11 cells; assay type: cell-based, Rhodnius prolixus; conditions: for Activation of RhoprCCAPR (in words): CHO-WTA11 cells expressing RhoprCCAPR, bioluminescent response
Experimental: The coding region of RhoprCCAPR (1,128 bp) (RhoprCCAPR) was amplified from unfed 5th instar CNS cDNA with gene specific primers (Table 1C) using a Q5 High fidelity DNA polymerase (New England Biolabs, Pickering, ON). At the 5′ end before the ATG initiation codon, the Kozak translation initiation sequence ([…]) was introduced since this is required for optimal translation by eukaryotic ribosomes (Table 1C) [26]–[28]. The PCR product was run on a 0.8% agarose gel for 40 mins (160V) and the correct size of band was excised and purified (Promega, Madison, WI, USA). This was then subcloned into the pGEM T easy vector (Promega, Madison, WI) to verify its sequence. The insert with the Kozak sequence was excised using restriction enzyme (NotI) and subcloned into the expression vector, pcDNA™3.1(+) (Invitrogen, Carlsbad, CA) to express in Chinese hamster ovary (CHO-K1) WTA11, mammalian cells (Euroscreen S. A., Belgium; provided by Prof. Dr. M. Parmentier and Dr. M. Detheux; Brussels, Belgium).
RhoprCCAPR was transiently expressed in CHO-WTA11 cells that stably express promiscuous Gα16 and apoaequorin. This cell line has been used extensively for insect GPCR functional assays. The transfection was performed using X-treme HP DNA transfection reagent (Roche Applied Science, Indianapolis, IN) with the ratio of 3 (transfection reagent) to 1 (RhoprCCAPR/pcDNA™3.1(+) or empty pcDNA™3.1(+) vector) according to the manufacture’s protocol (Roche Applied Science, Indianapolis, IN). Cells were grown in the complete Dulbecco’s Modified Eagle Medium Nutrient Mixture F12-Ham (DMEM/F12, 10% fetal bovine serum, FBA, 100 IU/ml penicillin/streptomycin (Invitrogen, Carlsbad, CA)) in the 5% CO2 37°C incubator. After 48 hours, transfected cells were incubated with 5 µM Coelentarazine for 4 hours (Invitrogen, Carlsbad, CA) at room temperature in the dark. Interaction between ligand and the cloned RhoprCCAPR leads to a bioluminescent response that is mediated by the IP3/Ca^2+ signaling pathway. The luminescence assay was performed on opaque 96-well microplates (Corning, Lowell, MA). 50 µl of cells were introduced into each well of the 96-well plate that contained either controls or different concentration of peptides (RhoprCCAP, RhoprCorazonin, RhoprAKH and GNDNFMRFa) (Table 2) and the changes of luminescence were recorded for 20 sec. Wells only containing DMEM/0.1% BSA medium served as a negative control, while wells containing 50nM ATP served as a positive control. All luminescence values were corrected for background values from wells containing only DMEM/BSA medium and all values were calculated as maximum percentage difference. The response for each ligand concentration in replica wells and from at least three replica plates was averaged for analysis. GraphPad prism 5 (version 5.03) was used to analyze and generate the data.

[2] = system: dorsal vessel of R. prolixus; assay: In vitro heartbeat (dorsal vessel preparation, impedance converter); parameters: species or system Rhodnius prolixus
Experimental: Adult R. prolixus were anesthetized with CO2 for 10 sec and 1 µl of 2 µg of dsCCAPR was injected into the thorax using a 5 µl Hamilton syringe to knock down RhoprCCAPR transcript levels. As a control, groups of R. prolixus were injected with either 1 µl of dsARG or had no injection. R. prolixus were left for 1 hour at room temperature to recover and then placed into an incubator at 28°C on a 16 h:8 h light/dark cycle.
In vitro heartbeat was monitored as described in Lee and Lange (2011) with minor modifications. The ventral cuticle, digestive and reproductive systems were dissected and removed under RNase free saline. The dorsal vessel and dorsal diaphragm remained attached to the dorsal cuticle. Then, the dorsal cuticle was placed onto a Sylgard-coated dissecting dish and covered with 100 µL of saline. Electrodes attached to an impedance converter (UFI model 2991, Morro Bay, CA, USA) were placed between the fifth and sixth abdominal segments on either side of the dorsal vessel anterior to the alary. The preparation was stabilized in 100 µL of saline for 10 min at room temperature, and then 50 µL of 10^−9M CCAP was exchanged for 50 µL of saline. Heartbeat frequency was measured from the traces observed on a Linear Flat-bed single channel chart recorder. The preparation was washed with saline for 5 mins post application of CCAP. Heartbeat frequency was determined for 1 min before and after the application of 10^−9M CCAP. The response to 10^−9M CCAP was quantified by measuring the increase in frequency compared to saline, which was then expressed as a percentage of the maximum change in frequency for each preparation. Pools of tissues including dorsal vessel/fat body/trachea were collected and the percentage of knockdown was measured by qPCR as indicated above.

[3] = system: midgut α-amylase and protease activity; conditions: cited from earlier work
Source text: Crustacean cardioactive peptide (CCAP) is a cyclic nonapeptide that is conserved in arthropods. CCAP was first isolated as a cardioaccelerator from the pericardial organs of the shore crab, Carcinus maenas, [8]. Later, it was biochemically isolated from the nervous system of insects, [10]. The important functions of CCAP in insects have been well documented. […] The CCAP may act in a paracrine manner, released from CCAP-containing midgut endocrine cells, [44].

[4] = system: heart of R. prolixus; conditions: cited from earlier work
[5] = system: CCAPR1; conditions: read-out: EC50, T. castaneum CCAPR1; cited from earlier work
Source text: (§1) The improved sensitivity of this cell line over CHO-K cells is due to presence of the promiscuous Gα proteins.

[6] = target: CCAP receptor; conditions: read-out: EC50, A. gambiae CCAP receptor; cited from earlier work
Source text: as §1

[7] = system: CCAPR2; conditions: read-out: EC50, T. castaneum CCAPR2; cited from earlier work
Source text: as §1

[8] = target: CCAP receptor (CG6111); conditions: read-out: EC50, D. melanogaster CCAP receptor (CG6111); cited from earlier work
Source text: as §1

[9] = system: oviduct of Locusta migratoria; conditions: cited from earlier work
Source text: (§2) Crustacean cardioactive peptide (CCAP) is a cyclic nonapeptide that is conserved in arthropods. CCAP was first isolated as a cardioaccelerator from the pericardial organs of the shore crab, Carcinus maenas, [8]. Later, it was biochemically isolated from the nervous system of insects, [10]. The important functions of CCAP in insects have been well documented.

[10] = system: heart rate in Manduca sexta; conditions: cited from earlier work
Source text: as §2

[11] = system: heart rate in Drosophila melanogaster; conditions: cited from earlier work
Source text: as §2

[12] = system: hindgut of R. prolixus; parameters: method as in earlier work; conditions: dose-dependent; ref 31 (so in the source); cited from earlier work
[13] = system: RhoprCCAPR; assay: Calcium mobilization assay with RhoprCCAPR expressed in CHO-K1 cells; assay type: cell-based, Rhodnius prolixus; conditions: without promiscuous Gα, read-out: EC50 using CHO-K1 cells
Experimental: To determine the endogenous ligand for the isolated putative RhoprCCAPR in R. prolixus, we used a calcium mobilization assay which expresses the RhoprCCAPR clone in CHO-K1 cells. […] The receptor was not activated by other peptides that were tested, including RhoprAKH, RhoprCorazonin and an extended RhoprFMRFa, GNDNFMRFa (Figure 5A, 5B, Table 2). […] Thus, our control data illustrate that the functional receptor assay system is only activated in cells that are transfected with RhoprCCAPR and not by any endogenous receptors in these CHO cells.

[14] = system: corpora cardiaca; conditions: 33 (so in the source); cited from earlier work
Source text: (§3) Also, these peptides are functionally inter-related. […] [33]. In M. sexta, AKH mobilize lipids from the fat body during flight or locomotion when heartbeat frequency also increases.

[15] = system: heartbeat frequency in some insects; conditions: 34 (so in the source); cited from earlier work
Source text: as §3

[16] = CHO-WTA11 cells stably expressing Gα16 and apoaequorin, luminescence recorded 20 sec, averaged from at least three replica plates

Substance: GNDNFMRF-NH2 [ExtendedFMRFa]
- Activation of RhoprCCAPR (in words) ([1]; listed as GNDNFMRFa): not activated
- EC50 (M) RhoprCCAPR [1, 16]: Not active

Substance: PFCNAFTGC-NH2 (disulfide 3-9 (inferred)) [RhoprCCAP]
- Effect of CCAP on heartbeat after RhoprCCAPR knockdown (in words) ([2]; 10^−9 M CCAP, RhoprCCAPR knocked down by dsCCAPR, in vitro): loss of function; also recorded: unresponsive; also recorded: eliminates the CCAP-induced increase in vitro; also recorded: cardioacceleratory effect is abolished
- In vitro heartbeat frequency in the presence of 10^−9 M CCAP, dsARG treated bugs ([2]; dsARG-treated bugs, saline baseline 10.4±2.9, paired t test p = 0.0376, vs dsCCAPR unpaired p = 0.0318, mean ± SEM, n = 5 (Figure 6)): 15.6±3.9 beats/min
- In vitro heartbeat frequency in the presence of 10^−9 M CCAP, dsCCAPR treated bugs ([2]; dsCCAPR-treated bugs, saline baseline 5.4±3.0, paired t test p = 0.1688, vs dsARG unpaired p = 0.0318, mean ± SEM, n = 5 (Figure 6)): 4.6±3.3 beats/min
- Effect on enzyme secretion, P. americana [3]: regulates enzyme secretion
- Effect on α-amylase and protease activity ([3]; isolated midgut): increases α-amylase and protease activity
- Effect on heartbeat frequency in the heart, R. prolixus (Discussion) ([4]; dose-dependent, ref 31 (so in the source)): increases heartbeat frequency and contraction in a dose-dependent manner
- Effect on heartbeat frequency, R. prolixus ([4]; in vitro, 5th instar): increases heartbeat frequency in vitro; also recorded: increases the frequency of the heartbeat in R. prolixus in a reversible, dose-dependent manner
- EC50 [5]: 624 nM
- EC50 [6]: 1 nM
- EC50 [7]: 22 nM
- EC50 [8]: 0.54 nM
- EC50 [1, 16]: 12.2 nM
- Effect on oviduct contractions [9]: modulates oviduct contractions
- Effect on heart rate, M. sexta [10]: triggers increasing heart rate
- Effect on heart rate, D. melanogaster [11]: triggers increasing heart rate
- Effect on hindgut contraction [12]: increases heartbeat frequency and contraction in a dose-dependent manner
- EC50 [13]: 341 ± 8.8 nM
- Effect on AKH release [14]: influences AKH release
- Effect on heartbeat frequency in some insects [15]: increase heartbeat frequency

Substance: pQLTFSTDW-NH2 [RhoprAKH, adipokinetic hormone, pQLTFSTDW-NH2]
- Activation of RhoprCCAPR (in words) [1]: not activated
- Activation of RhoprCCAPR (in words) ([1]; listed as AKH): neither AKH nor corazonin activate the RhoprCCAPR
- EC50 (M) RhoprCCAPR [1, 16]: Not active
- Effect on heartbeat frequency in some insects [15]: increase heartbeat frequency

Substance: pQTFQYSRGWTN-NH2 [Corazonin]
- Activation of RhoprCCAPR (in words) [1]: neither AKH nor corazonin activate the RhoprCCAPR
- Activation of RhoprCCAPR (in words) ([1]; listed as RhoprCorazonin): not activated
- EC50 (M) RhoprCCAPR [1, 16]: Not active
- Effect on heartbeat frequency in some insects [15]: increase heartbeat frequency
